Legend:
in vitro = conditions: human
Description: Intrinsic clearance in human liver microsomes assessed per mg of microsomal protein at 0.2 to 1 uM after 30 mins by HPLC analysis

[1] = target: 11-beta-hydroxysteroid dehydrogenase 1 (Homo sapiens, UniProt P28845); assay: Inhibition of human 11beta-HSD1 by competitive binding assay
Chain of 11-beta-hydroxysteroid dehydrogenase 1 (P28845 whole entry): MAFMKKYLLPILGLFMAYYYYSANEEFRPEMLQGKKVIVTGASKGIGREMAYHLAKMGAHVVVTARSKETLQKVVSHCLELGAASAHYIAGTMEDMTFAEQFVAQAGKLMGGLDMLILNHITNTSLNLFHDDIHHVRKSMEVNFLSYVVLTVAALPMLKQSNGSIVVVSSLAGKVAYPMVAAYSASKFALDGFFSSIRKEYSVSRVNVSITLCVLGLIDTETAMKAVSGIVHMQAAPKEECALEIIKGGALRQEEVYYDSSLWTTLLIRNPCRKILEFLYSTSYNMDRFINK

Structure (SMILES)	microsomal CLint at 0.5 h, 1 µM (in vitro; liver microsomes)	IC50 [1]	microsomal CLint at 0.5 h, 1 µM (in vitro; microsomes)
O=C(c1ccc(F)cc1)C1CCN(C(=O)c2ccc([N+](=O)[O-])cc2)CC1	9 µL/min/mg		
CCN(C(=O)NCc1ccccc1F)C1CCN(CCC(c2ccccc2)c2ccccc2)CC1	74 µL/min/mg		
O=C(c1ccc(F)cc1)C1CCN(C(=O)c2ccccc2F)CC1	46.5 µL/min/mg	7.44 µM	
O=C(c1ccc(F)cc1)C1CCN(C(=O)c2ccc(OC(F)(F)F)cc2)CC1	17.9 µL/min/mg		
O=C(c1ccc(F)cc1)C1CCN(C(=O)c2ccccc2OC(F)(F)F)CC1	16.9 µL/min/mg		
O=C(c1ccc(F)cc1)C1CCN(C(=O)c2ccc(N3CCOCC3)cc2)CC1	15.2 µL/min/mg		
COc1ccc(C(=O)N2CCC(C(=O)c3ccc(F)cc3)CC2)cc1	22.6 µL/min/mg	15.8 µM	
O=C(c1ccc(F)cc1)C1CCN(C(=O)c2cccc(C(F)(F)F)c2)CC1	13.7 µL/min/mg		
O=C(c1ccc(F)cc1)C1CCN(C(=O)c2cc(F)cc(F)c2)CC1	25.3 µL/min/mg	> 30 µM	
COc1ccccc1C(=O)N1CCC(C(=O)c2ccc(F)cc2)CC1	14.3 µL/min/mg	23.6 µM	
COc1cccc(C(=O)N2CCC(C(=O)c3ccc(F)cc3)CC2)c1OC	14.9 µL/min/mg		
CCN(C(=O)NCc1c(F)cccc1F)C1CCN(CCC(c2ccccc2)c2ccccc2)CC1	6 µL/min/mg		
CS(=O)(=O)Nc1cccc(C(=O)N2CCC(C(=O)c3ccc(F)cc3)CC2)c1	9.23 µL/min/mg	> 30 µM	
O=C(c1ccc(F)cc1)C1CCN(C(=O)c2ccc(Cl)cc2)CC1	18.6 µL/min/mg	6.02 µM	
Cc1cccc(C(=O)N2CCC(C(=O)c3ccc(F)cc3)CC2)c1	43.6 µL/min/mg		
O=C(c1ccc(F)cc1)C1CCN(C(=O)c2ccc(Cl)c(C(F)(F)F)c2)CC1	11.5 µL/min/mg		
CS(=O)(=O)c1cccc(C(=O)N2CCC(C(=O)c3ccc(F)cc3)CC2)c1	11.4 µL/min/mg	> 30 µM	
O=C(c1ccc(F)cc1)C1CCN(C(=O)c2ccc(F)cc2Cl)CC1	18 µL/min/mg		
O=C(c1ccc(F)cc1)C1CCN(C(=O)c2cccc(Br)c2)CC1	19.3 µL/min/mg		
N#Cc1ccc(C(=O)N2CCC(C(=O)c3ccc(F)cc3)CC2)cc1	11.7 µL/min/mg	> 30 µM	
O=C(c1ccc(F)cc1)C1CCN(C(=O)c2ccc(Cl)c(Cl)c2)CC1	16.5 µL/min/mg		
CCN(C(=O)NCc1ccc(S(C)(=O)=O)cc1)C1CCN(CCC(c2ccc(F)cc2)C2CCN(Cc3cccnc3)CC2)CC1 (configuration not stated)	5 µL/min/mg		
COc1ccc(C(=O)N2CCC(C(=O)c3ccc(F)cc3)CC2)c(OC)c1	15.8 µL/min/mg		
CCN(C(=O)NCc1ccc(S(C)(=O)=O)cc1)C1CCN(CCC(c2ccc(F)cc2)C2CCN(Cc3ccc4ccccc4n3)CC2)CC1 (configuration not stated)	3 µL/min/mg		
NS(=O)(=O)c1ccc(C(=O)N2CCC(C(=O)c3ccc(F)cc3)CC2)cc1	12.3 µL/min/mg	> 30 µM	
O=C(c1ccc(F)cc1)C1CCN(C(=O)c2ccc(F)cc2)CC1	17.1 µL/min/mg	21.8 µM	
CS(=O)(=O)c1ccc(C(=O)N2CCC(C(=O)c3ccc(F)cc3)CC2)cc1	12.4 µL/min/mg	> 30 µM	
N#Cc1cccc(C(=O)N2CCC(C(=O)c3ccc(F)cc3)CC2)c1	14.5 µL/min/mg	> 30 µM	

Structure (SMILES)	microsomal CLint at 0.5 h, 1 µM (in vitro; liver microsomes)	IC50 [1]	microsomal CLint at 0.5 h, 1 µM (in vitro; microsomes)
O=C(c1ccc(F)cc1)C1CCN(C(=O)c2ccccc2)CC1	23 µL/min/mg	3.61 µM	
O=C(c1ccc(F)cc1)C1CCN(C(=O)c2ccc(F)c(F)c2)CC1	12.5 µL/min/mg		
N#Cc1ccccc1C(=O)N1CCC(C(=O)c2ccc(F)cc2)CC1	28.4 µL/min/mg		
CCN(C(=O)NCc1cccc(F)c1)C1CCN(CCC(c2ccccc2)c2ccccc2)CC1	86 µL/min/mg		
O=C(c1ccc(F)cc1)C1CCN(C(=O)c2ccc(Cl)cc2Cl)CC1	41.2 µL/min/mg	> 30 µM	
CCN(C(=O)NCc1ccc(F)cc1)C1CCN(CCC(c2ccccc2)c2ccccc2)CC1			105 µL/min/mg
Cc1ccccc1C(=O)N1CCC(C(=O)c2ccc(F)cc2)CC1	23.5 µL/min/mg		
NS(=O)(=O)c1cccc(C(=O)N2CCC(C(=O)c3ccc(F)cc3)CC2)c1	13 µL/min/mg	> 30 µM	
Nc1ccccc1C(=O)N1CCC(C(=O)c2ccc(F)cc2)CC1	15.6 µL/min/mg		
COc1cccc(C(=O)N2CCC(C(=O)c3ccc(F)cc3)CC2)c1	12.9 µL/min/mg		
O=C(c1ccc(F)cc1)C1CCN(C(=O)c2ccc(C(F)(F)F)cc2)CC1	15.5 µL/min/mg		
O=C(c1ccc(F)cc1)C1CCN(C(=O)c2cccc([N+](=O)[O-])c2)CC1	5.3 µL/min/mg		
CCN(C(=O)NCc1cc(F)cc(F)c1)C1CCN(CCC(c2ccccc2)c2ccccc2)CC1	< 3 µL/min/mg		
O=C(c1ccc(F)cc1)C1CCN(C(=O)c2cccc(F)c2F)CC1	18 µL/min/mg	> 30 µM	
O=C(c1ccc(F)cc1)C1CCN(C(=O)c2cccc(Cl)c2)CC1	22.2 µL/min/mg		
Cc1ncc(-c2ccnc(Nc3ccccc3)n2)n1C(C)C	63.5 µL/min/mg		
CCN(C(=O)NCc1cc(F)ccc1F)C1CCN(CCC(c2ccccc2)c2ccccc2)CC1	< 4 µL/min/mg		
CCN(C(=O)NCc1ccc(S(C)(=O)=O)cc1)C1CCN(CCC(c2ccccc2)C2CCN(Cc3cccnc3)CC2)CC1 (configuration not stated)	> 150 µL/min/mg		
O=C(c1ccc(F)cc1)C1CCN(C(=O)c2ccccc2Cl)CC1	32.6 µL/min/mg		
CCN(C(=O)NCc1ccc(S(C)(=O)=O)cc1)C1CCN(CCC(c2ccccc2)C2CCN(Cc3ccc4ccccc4n3)CC2)CC1 (configuration not stated)	> 150 µL/min/mg		
O=C(c1ccc(F)cc1)C1CCN(C(=O)c2ccc(Br)cc2)CC1	22.7 µL/min/mg		
Cc1ccc(C(=O)N2CCC(C(=O)c3ccc(F)cc3)CC2)cc1	41.8 µL/min/mg	3.41 µM	
CN(C)c1cccc(C(=O)N2CCC(C(=O)c3ccc(F)cc3)CC2)c1	53.5 µL/min/mg		
O=C(c1ccc(F)cc1)C1CCN(C(=O)c2cccc(F)c2)CC1	31.9 µL/min/mg		
CC(=O)c1ccc(C(=O)N2CCC(C(=O)c3ccc(F)cc3)CC2)cc1	19.8 µL/min/mg		
O=C(c1ccc(F)cc1)C1CCN(C(=O)c2cccc(OC(F)(F)F)c2)CC1	31.8 µL/min/mg		
O=C(c1ccc(F)cc1)C1CCN(C(=O)c2ccc(-c3ccccc3)cc2)CC1	4.93 µL/min/mg		

Source: ChEMBL document CHEMBL1165992, “A statistical analysis of in vitro human microsomal metabolic stability of small phenyl group substituents, leading to improved design sets for parallel SAR exploration of a chemical series” (Bioorg Med Chem, 2010)
